The values below come from patent publication US20040181130A1, “Methods for diagnosing skin lesions” (3M Innovative Properties Company, priority 2003, published 2004).

For the experiment, the system named is AK lesions. The experiment can be described thus: Increase in AK lesion count during 16-week topical treatment of volunteers with AK lesions. Type of experiment: in vivo, human. An excerpt: Volunteers having from four to eight clinically diagnosed AK lesions located within a 25 cm^2 treatment area were enrolled in a study. The study consisted of a prestudy period, a 16-week treatment period, and an 8-week post treatment period. Enrolled participants were randomized to receive either 5% imiquimod cream (ALDARA, 3M Pharmaceuticals, St. Paul, Minn.) or placebo cream containing no biologically active ingredient.
Subjects were instructed to topically administer cream from a single-use sachet. Sachets that contained imiquimod contained 250 mg of cream. One group of subjects applied cream two days per week for sixteen weeks, with dosing days occurring a minimum of three days apart. A second group of subjects applied cream three days per week for sixteen weeks, with dosing days occurring at least two days apart.
At a pretreatment visit, a baseline AK lesion count was established for each subject. Updated AK lesion counts were calculated at visits after four weeks, eight weeks, and sixteen weeks of treatment. For each individual, “new” AK lesions were calculated as the difference between the updated AK count and the baseline AK count. Thus, subclinical AK lesions may become apparent after treatment with ALDARA cream.

Setting [1] is: 5% cream topical 2x/week, Any visit, N=215.
Where [2] appears, read: 5% cream topical 2x/week, Week 4, N=215.
Setting [3] is: 5% cream topical 2x/week, Week 8, N=215.
Where [4] appears, read: 5% cream topical 2x/week, Week 16, N=215.
Where [5] appears, read: 5% cream topical 3x/week, Any visit, N=242.
[6] abbreviates: 5% cream topical 3x/week, Week 4, N=242.
Setting [7] is: 5% cream topical 3x/week, Week 8, N=242.
[8] abbreviates: 5% cream topical 3x/week, Week 16, N=242.

For `CC(C)Cn1cnc2c(N)nc3ccccc3c21` [Imiquimod, imiquimod], the “% of Subjects with an Increase in AK Lesion Count” value (from here on “% of Subjects with an Increase”) was 47.9% under setting [1]; 36.7% under setting [2]; 28.4% under setting [3]; 9.3% under setting [4]; 42.6% under setting [5]; 33.1% under setting [6]. Moreover, the “% of Subjects with an Increase” value under setting [7] is 16.5% and the “% of Subjects with an Increase” value under setting [8] was determined as 6.2%. The “Number of Subjects with an Increase in AK Lesion Count” value (“Number of Subjects with an Increase” for short) under setting [1] is 103; the “Number of Subjects with an Increase” value under setting [2] is reported as 79; the “Number of Subjects with an Increase” value under setting [3] is 61; the “Number of Subjects with an Increase” value under setting [4] came to 20; the “Number of Subjects with an Increase” value under setting [5] is given as 103; the “Number of Subjects with an Increase” value under setting [6] was 80. The “Number of Subjects with an Increase” value under setting [7] stood at 40 and the “Number of Subjects with an Increase” value under setting [8] came to 15.
